Test results from patent publication US8648012B2, “Herbicidal compositions comprising naptalam” (BASF SE, priority 2009, dated 2014).

Legend:
[1] = system: common amaranth (Amaranthus retroflexus AMARE); assay: Example 6: weed control of clopyralid or picloram plus naptalam mixtures; format: in vivo; details: postemergence
Description: (§1) Seedlings of common amaranth (Amaranthus retroflexus AMARE) and common lambsquarters (Chenopodium album; CHEAL), each 8 to 10 cm in height, were treated with postemergence applications of either clopyralid at 53.5 g ae/ha, picloram at 5.6 g ae/ha or naptalam at 140 g ae/ha, or the combination of clopyralid and naptalam at 53.5 g ae/ha and 140 g ae/ha, or the combination of picloram and naptalam at 5.6 g ae/ha and 140 g ae/ha, respectively, when they were 8-10 cm in height. All treatment mixtures contained 0.25% (v/v) non-ionic surfactant. […] Percent injury data was collected 10 days after treatment (DAT).

[2] = system: common lambsquarters (Chenopodium album; CHEAL); assay: as above; format: in vivo; details: postemergence
Description: as §1

[3] = system: sunflower (helianthus sp. HELSS); assay: Example 8: weed control of clopyralid+naptalam mixtures; format: in vivo; details: postemergence
Description: Seedlings of sunflower (helianthus sp. HELSS) were treated with postemergence applications of either clopyralid at 210 g ae/ha or at 105 g ae/ha, or naptalam at 56 g ae/ha, or the combination of clopyralid and naptalam at 210+56 g ae/ha or at 105+56 g ae/ha, respectively, when they were 8-10 cm in height. All treatment mixtures contained 0.25% (v/v) non-ionic surfactant. […] Percent injury data was collected 10 days after treatment (DAT).

[4] = system: perennial ryegrass (Lolium perenne, LOLPE); assay: Example 4: postemergence turf selectivity of dicamba plus naptalam; format: in vivo; details: 13 DAT
Description: (§2) In all use examples, plants were grown in a greenhouse environment.
(§3) Naptalam was used as a commercial SL formulation containing 240 g/l of naptalam (Alanap-L from Cheminova). Clopyralid was used as a commercial SL formulation containing 360 g/l of clopyralid (Stinger of Dow Agroscience). Picloram was used as a commercial SL formulation containing 240 g/l of picloram (Tordon 22K of Dow Agroscience). A mixture of 2,4-D+MCPP+Dicamba was used as a commercial SL formulation containing 283 g/l of 2,4-D, 63 g/l of MCPP and 25 g/l of Dicamba (Trimec Classic of PBI Gordon Corp.). Dicamba was used as a commercial SL formulation containing 480 g/l of Dicamba (Clarity BASF).
(§4) The evaluation for the plant damage or injury caused by the chemical compositions was carried out using a scale from 0 to 100%, when compared with the untreated control plants. Here, 0 means no damage and 100 means complete destruction of the plants. I50 values were estimated from % injury data at different application rates by non-linear regression of log-logistic dose-response curves.
(§5) Seedlings of tall fescue (Festuca arundinacea, FESAR) or perennial ryegrass (Lolium perenne, LOLPE) were treated with five different rates of dicamba between 28 and 2800 g ae/ha when they were 10-14 cm in height. DFFP or naptalam at rates of 140 g ae/ha were applied either alone or in combination with dicamba treatments. All treatment mixtures contained 0.25% (v/v) non-ionic surfactant plus 1% (w/v) ammonium sulfate. Following treatment, plants were placed in a completely randomized design with four replications per treatment. Percent injury data was collected 13 DAT.

[5] = system: tall fescue (Festuca arundinacea, FESAR); assay: as above; format: in vivo; details: 13 DAT
Description: as §2, §3, §4, §5

[6] = system: Palmer amaranth (Amaranthus palmeri; AMAPA); assay: Example 1: postemergence weed control of dicamba plus naptalam mixtures, greenhouse; format: in vivo; details: 10 DAT
Description: as §2, §3, §4
(§6) 22 ff. E=X+Y−(X·Y/100) where • X=effect in percent using herbicide A at an application rate a; • Y=effect in percent using herbicide B at an application rate b; • E=expected effect (in %) of A+B at application rates a+b.
(§7) The value E corresponds to the effect (plant damage or injury) which is to be expected if the activity of the individual compounds is just additive. If the observed effect is higher than the value E calculated according to Colby, a synergistic effect is present.
(§8) Seedlings of velvetleaf (Abutilon theophrasti; ABUTH), Palmer amaranth (Amaranthus palmeri; AMAPA), and common lambsquarters (Chenopodium album; CHEAL) were treated with postemergence applications of either dicamba at 140 or 280 g ae/ha, naptalam at 56 g ae/ha, or the combination of dicamba and naptalam at 140 and 56 g ae/ha, respectively, when they were 10-12 cm in height. All treatment mixtures contained 0.25% (v/v) non-ionic surfactant plus 1% (w/v) ammonium sulfate. Plants were placed in a completely randomized design with four replications per treatment. Percent injury data was collected 10 days after treatment (DAT).

[7] = system: velvetleaf (Abutilon theophrasti; ABUTH); assay: as above; format: in vivo; details: 10 DAT
Description: as §2, §3, §4, §6, §7, §8

[8] = system: common lambsquarters (Chenopodium album; CHEAL); assay: as above; format: in vivo; details: 10 DAT
Description: as §2, §3, §4, §6, §7, §8

[9] = system: Winter wheat (Triticum aestivum, TRZAW); assay: Example 3: preemergence crop selectivity of dicamba plus naptalam; format: in vivo; details: 13 DAT
Description: as §2, §3, §4
Winter wheat (Triticum aestivum, TRZAW) seeds were sown into soil, and the following day treated with five different rates of dicamba between 5.6 and 560 g ae/ha. Diflufenzopr (DFFP) or naptalam at rates of 224 g ae/ha was applied either alone or in combination with dicamba treatments. Following application, pots were placed in a completely randomized design with four replications per treatment. Percent injury data was collected 13 DAT.

[10] = system: TRZAW; assay: Example 5: postemergence wheat selectivity of dicamba plus naptalam; format: in vivo, Triticum aestivum; details: 8 DAT
Description: as §2, §3, §4
Seedlings of TRZAW were treated with five different rates of dicamba between 14 and 1400 g ae/ha when they were 12-14 cm in height. In addition, DFFP or naptalam at 70 g ae/ha were applied either alone or in combination with dicamba treatments. All treatment mixtures contained 0.25% (v/v) non-ionic surfactant plus 1% (w/v) ammonium sulfate. Following treatment, plants were placed in a completely randomized design with four replications per treatment. Percent injury data was collected 8 DAT.

[11] = system: CHEAL; details: naptalam 0 g ae/ha
Description: as §2, §3, §4
(§9) Seedlings of ABUTH or CHEAL were treated with five different rates of dicamba between 0.14 and 140 g ae/ha when they were 10-12 cm in height. Naptalam was mixed with dicamba at rates of 0, 28, 35, 47, 70, or 140 g ae/ha to each dose-response series. All treatment mixtures included the addition of 0.25% (v/v) non-ionic surfactant and 1% (w/v) ammonium sulfate. Plants were placed in a completely randomized design with four replications per treatment. Percent injury data was collected 11 DAT and used to estimate the amount of dicamba necessary to obtain 50% injury (I50). […] estimates for solo applications of dicamba (I50 (—NPA)) were compared with I50 estimates for the combined application of dicamba and naptalam (I50 (+NPA)) to determine the relative increase of dicamba activity through the addition of naptalam.

[12] = system: ABUTH; details: naptalam 0 g ae/ha
Description: as §2, §3, §4, §9

[13] = system: sunflower (helianthus sp. HELSS); assay: Example 7: weed control of 2,4-D+MCPP+dicamba+naptalam mixtures; format: in vivo; details: postemergence, naptalam 56 g ae/ha
Description: as §2, §3, §4
Plants were placed in a completely randomized design with four replications per treatment. Percent injury data was collected 10 days after treatment (DAT).

[14] = naptalam 140 g ae/ha alone (dicamba 0)
[15] = DFFP 140 g ae/ha alone (dicamba 0)

O=C(O)c1nc(Cl)ccc1Cl [Clopyralid, clopyralid]
Mean % Control (10 DAT) AMARE ([1]; clopyralid 53.5 g ae/ha): 23% | Mean % Control (10 DAT) CHEAL ([2]; clopyralid 53.5 g ae/ha): 25% | Mean % Control (10 DAT) HELSS ([3]; clopyralid 105 g ae/ha): 28% | Mean % Control (10 DAT) HELSS ([3]; clopyralid 210 g ae/ha): 83%

COc1c(Cl)ccc(Cl)c1C(=O)O [Dicamba, 3,6-dichloro-2-methoxybenzoic acid]
LOLPE Mean % Injury ([4]; dicamba alone 28.0 g ae/ha): 0 e % | LOLPE Mean % Injury ([4]; dicamba alone 88.5 g ae/ha): 0 e % | LOLPE Mean % Injury ([4]; dicamba alone 280 g ae/ha): 0 e % | LOLPE Mean % Injury ([4]; dicamba alone 885 g ae/ha): 0 e % | LOLPE Mean % Injury ([4]; dicamba alone 2800 g ae/ha): 7.5 de % | FESAR Mean % Injury ([5]; dicamba alone 28.0 g ae/ha): 0 c % | FESAR Mean % Injury ([5]; dicamba alone 88.5 g ae/ha): 2.5 c % | FESAR Mean % Injury ([5]; dicamba alone 280 g ae/ha): 5.0 c % | FESAR Mean % Injury ([5]; dicamba alone 885 g ae/ha): 7.5 c % | FESAR Mean % Injury ([5]; dicamba alone 2800 g ae/ha): 32.5 b % | Mean % Control AMAPA ([6]; dicamba 140 g ae/ha): 80.0% | Mean % Control AMAPA ([6]; dicamba 280 g ae/ha): 96.3% | Mean % Control ABUTH ([7]; dicamba 140 g ae/ha): 65.0% | Mean % Control ABUTH ([7]; dicamba 280 g ae/ha): 91.3% | Mean % Control CHEAL ([8]; dicamba 140 g ae/ha): 86.3% | Mean % Control CHEAL ([8]; dicamba 280 g ae/ha): 98.5% | TRZAW Mean % Injury ([9]; dicamba alone 5.6 g ae/ha): 0% | TRZAW Mean % Injury ([9]; dicamba alone 17.7 g ae/ha): 0% | TRZAW Mean % Injury ([9]; dicamba alone 56.0 g ae/ha): 0% | TRZAW Mean % Injury ([9]; dicamba alone 177.0 g ae/ha): 0% | TRZAW Mean % Injury ([9]; dicamba alone 560.0 g ae/ha): 76.3% | TRZAW Mean % Injury ([10]; dicamba alone 14.0 g ae/ha): 0% | TRZAW Mean % Injury ([10]; dicamba alone 44.0 g ae/ha): 2.5% | TRZAW Mean % Injury ([10]; dicamba alone 140 g ae/ha): 5.0% | TRZAW Mean % Injury ([10]; dicamba alone 440 g ae/ha): 25.0% | TRZAW Mean % Injury ([10]; dicamba alone 1400 g ae/ha): 50.0% | CHEAL I50 (amount of dicamba for 50% injury) ([11]; 11 DAT): 35.2 g ae/ha | CHEAL Fold-increase of dicamba activity = I50 (-NPA)/I50(+NPA) [11]: 1.0 | ABUTH I50 (amount of dicamba for 50% injury) ([12]; 11 DAT): 80.2 g ae/ha | ABUTH Fold-increase of dicamba activity = I50 (-NPA)/I50(+NPA) [12]: 1.0

O=C(O)c1ccccc1C(=O)Nc1cccc2ccccc12 [Naptalam, N-1-naphthylphthalamic acid]
LOLPE Mean % Injury [4, 14]: 0 e % | FESAR Mean % Injury [5, 14]: 0 c % | Mean % Control AMAPA ([6]; naptalam 56 g ae/ha): 18.8% | Mean % Control ABUTH ([7]; naptalam 56 g ae/ha): 0% | Mean % Control CHEAL ([8]; naptalam 56 g ae/ha): 0% | Mean % Control (10 DAT) AMARE ([1]; naptalam 140 g ae/ha): 0% | Mean % Control (10 DAT) CHEAL ([2]; naptalam 140 g ae/ha): 5% | Mean % Control (10 DAT) HELSS [13]: 12% | TRZAW Mean % Injury ([9]; naptalam 224 g ae/ha alone (dicamba 0)): 0% | TRZAW Mean % Injury ([10]; naptalam 70 g ae/ha alone (dicamba 0)): 0% | Mean % Control (10 DAT) HELSS ([3]; naptalam 56 g ae/ha): 10%

C/C(=N\NC(=O)Nc1cc(F)cc(F)c1)c1ncccc1C(=O)O [DFFP, diflufenzopyr]
LOLPE Mean % Injury [4, 15]: 30.0 c % | FESAR Mean % Injury [5, 15]: 38.8 b % | TRZAW Mean % Injury ([9]; DFFP 224 g ae/ha alone (dicamba 0)): 61.3% | TRZAW Mean % Injury ([10]; DFFP 70 g ae/ha alone (dicamba 0)): 8.8%

Nc1c(Cl)c(Cl)nc(C(=O)O)c1Cl [Picloram, picloram]
Mean % Control (10 DAT) AMARE ([1]; picloram 5.6 g ae/ha): 43% | Mean % Control (10 DAT) CHEAL ([2]; picloram 5.6 g ae/ha): 43%
